The IC50 is the concentration that gives 50% inhibition.

Like-named read-outs stand apart in the source and are kept apart here.

The target of the assay is T1, Human M4 (Homo sapiens, UniProt P08173).
T1 construct: Human or rat M4 cDNA, along with the chimeric G protein Gqi5, were transfected into Chinese hamster ovary (CHO-K1) cells; expressed in transfected cells; host or cells: CHO-K1 (Chinese hamster ovary, ATCC), stably co-expressing Gqi5
T1 sequence (P08173 1-479): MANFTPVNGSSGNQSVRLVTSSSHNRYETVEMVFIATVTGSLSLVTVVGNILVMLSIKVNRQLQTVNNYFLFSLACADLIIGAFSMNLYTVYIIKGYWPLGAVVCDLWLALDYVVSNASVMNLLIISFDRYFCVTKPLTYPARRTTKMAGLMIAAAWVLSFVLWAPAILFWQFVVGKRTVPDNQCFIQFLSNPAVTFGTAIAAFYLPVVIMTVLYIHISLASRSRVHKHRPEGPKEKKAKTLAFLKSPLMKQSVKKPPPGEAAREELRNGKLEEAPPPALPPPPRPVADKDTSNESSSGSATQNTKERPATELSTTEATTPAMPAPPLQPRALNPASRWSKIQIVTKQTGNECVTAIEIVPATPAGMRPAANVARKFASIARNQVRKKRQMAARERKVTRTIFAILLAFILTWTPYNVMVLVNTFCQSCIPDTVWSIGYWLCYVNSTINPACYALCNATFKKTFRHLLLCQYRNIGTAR
As to the kind of experiment: mAChR M4 cell-based functional assay (calcium flux, decrease of EC80 acetylcholine response). Particulars: for remaining activity at 30 µM: read-out: Human M4 Emin; for IC50: M4/Gqi5/CHO-K1 cells, decrease of response to EC80 acetylcholine. The method, then: Human or rat M4 cDNA, along with the chimeric G protein Gqi5, were transfected into Chinese hamster ovary (CHO-K1) cells purchased from the American Type Culture Collection using Lipofectamine2000. M4/Gqi5/CHO cells were grown in Ham's F-12 medium containing 10% heat-inactivated fetal bovine serum (FBS), 20 mM HEPES, 500 μg/mL G418 sulfate, and 200 μg/mL Hygromycin B.
For high throughput measurement of agonist-evoked increases in intracellular calcium, CHO-K1 cells stably expressing muscarinic receptors were plated in growth medium lacking G418 and hygromycin at 15,000 cells/20 μL/well in Greiner 384-well black-walled, tissue culture (TC)-treated, clear-bottom plates (VWR). Cells were incubated overnight at 37° C. and 5% CO2. The next day, cells were washed using an ELX 405 (BioTek) with assay buffer; the final volume was then aspirated to 20 μL. Next, 20 μL of a 2.3 μM stock of Fluo-4/acetoxymethyl ester (Invitrogen, Carlsbad, Calif.), prepared as a 2.3 mM stock in DMSO and mixed in a 1:1 ratio with 10% (w/v) Pluronic F-127 and diluted in assay buffer, was added to the wells and the cell plates were incubated for 50 min at 37° C. and 5% CO2. Dye was removed by washing with the ELX 405 and the final volume was aspirated to 20 μL. Compound master plates were formatted in a 10 point concentration-response curve (CRC) format (1:3 dilutions) in 100% DMSO with a starting concentration of 10 or 1 mM using a BRAVO liquid handler (Agilent). Test compound CRCs were then transferred to daughter plates (240 nL) using the Echo acoustic plate reformatter (Labcyte, Sunnyvale, Calif.) and then diluted into assay buffer (40 μL) to a 2×stock using a Thermo Fisher Combi (Thermo Fisher Scientific, Waltham, Mass.).
Calcium flux was measured using the Functional Drug Screening System (FDSS) 6000 or 7000 (Hamamatsu Corporation, Tokyo, Japan) as an increase in the fluorescent static ratio. Compounds were applied to cells (20 μL, 2×) using the automated system of the FDSS at 2 seconds into the protocol and the data were collected at 1 Hz. At 143 s, 10 μL of an EC20 concentration of the muscarinic receptor agonist acetylcholine was added (5×), followed by the addition of 12 μL of an EC80 concentration of acetylcholine at the 268 s time point (5×). Agonist activity was analyzed as a concentration-dependent increase in calcium mobilization upon compound addition. Positive allosteric modulator activity was analyzed as a concentration-dependent increase in the EC20 acetylcholine response. Antagonist activity was analyzed as a concentration-dependent decrease in the EC80 acetylcholine response; for the purposes of the tables herein, an IC50 (inhibitory concentration 50) was calculated as a concentration-dependent decrease of the response elicited by an EC80 concentration of acetylcholine. Concentration-response curves were generated using a four-parameter logistical equation in XLFit curve fitting software (IDBS, Bridgewater, N.J.) for Excel (Microsoft, Redmond, Wash.) or Prism (GraphPad Software, Inc., San Diego, Calif.) or the Dotmatics software platform (Dotmatics, Bishop's Stortford, UK).
Compounds were synthesized as described above. Activity (IC50 and Emin) was determined in the mAChR M4 cell-based functional assay as described above and the data are shown in Table 2.
For orientation: A change in cytosolic calcium serves as a functional read-out for many receptors and channels.

For `Cc1c(F)cc(F)cc1-c1cc(C(F)(F)F)c(N[C@H]2C[C@@H]3CN(CC4CCOCC4)C[C@@H]3C2)nn1` [Example 46, (3aR,5s,6aS)-N-(6-(3,5-difluoro-2-methylphenyl)-4-(trifluoromethyl)pyridazin-3-yl)-2-((tetrahydro-2H-pyran-4-yl)methyl)octahydro-cyclopenta[c]pyrrol-5-amine], the IC50 came out at 384 nM. Moreover, where the note is “% ACh maximum at 30 μM”, the remaining activity at 30 µM amounted to 4%.
As for `[2H]C([2H])(C1CCOCC1)N1C[C@H]2C[C@H](Nc3nnc(-c4cc(F)ccc4C(F)(F)F)cc3C(F)(F)F)C[C@H]2C1` [Example 99, (3aR,5s,6aS)-N-(6-(5-fluoro-2-(trifluoromethyl)phenyl)-4-(trifluoromethyl)pyridazin-3-yl)-2-((tetrahydro-2H-pyran-4-yl)methyl-d2)octahydro-cyclopenta[c]pyrrol-5-amine], the IC50 stood at 54.7 nM. Moreover, the remaining activity at 30 µM (% ACh maximum at 30 μM) stood at 2%.
In the same order, the values of `[2H]C([2H])([C@H]1CCCCO1)N1C[C@H]2C[C@H](Nc3nnc(-c4cc(C)ccc4C)cc3C(F)(F)F)C[C@H]2C1` [Example 114, (3aR,5s,6aS)-N-(6-(2,5-dimethylphenyl)-4-(trifluoro-methyl)pyridazin-3-yl)-2-(((R)-tetrahydro-2H-pyran-2-yl)methyl-d2)octahydro-cyclopenta[c]pyrrol-5-amine] are 235 nM and 3%.
As for `Cn1cc2cc(-c3cc(C#N)c(N[C@H]4C[C@@H]5CN(CC6(C#N)CC6)C[C@@H]5C4)nn3)ccc2n1` [Example 160, 3-(((3aR,5s,6aS)-2-((1-cyano-cyclopropyl)methyl)octahydro-cyclopenta[c]pyrrol-5-yl)amino)-6-(2-methyl-2H-indazol-5-yl)pyridazine-4-carbonitrile], the IC50 amounted to 688 nM. In addition, under “% ACh maximum at 30 μM”, the remaining activity at 30 µM was 6%.
In the same order, the values of `Cn1cc2cc(-c3cc(C#N)c(N[C@H]4C[C@@H]5CN(CC6CCCOC6)C[C@@H]5C4)nn3)ccc2n1` (single isomer, unassigned) [Example 158] are 15.7 nM and 14%.
The corresponding values for `[2H]C([2H])(C1CCOCC1)N1C[C@H]2C[C@H](Nc3nnc(-c4ccc5c(c4)OCC5)cc3C(F)(F)F)C[C@H]2C1` [Example 123, (3aR,5s,6aS)-N-(6-(2,3-dihydro-benzofuran-6-yl)-4-(trifluoro-methyl)pyridazin-3-yl)-2-((tetrahydro-2H-pyran-4-yl)methyl-d2)octahydro-cyclopenta[c]pyrrol-5-amine] are 55.3 nM and 3%.
In the case of `Cc1c(-c2nnc(N(C)[C@H]3C[C@@H]4CN(CC5CCOCC5)C[C@@H]4C3)cc2C(F)(F)F)ccc2nn(C)cc12` [Example 7, (3aR,5s,6aS)—N-(6-(2,4-dimethyl-2H-indazol-5-yl)-5-(trifluoromethyl)pyridazin-3-yl)-N-(methyl-d3)-2-((tetrahydro-2H-pyran-4-yl)methyl)octahydrocyclopenta [c]pyrrol-5-amine], the IC50 worked out at 3670 nM.
For `Cn1cc2cc(-c3cc(C#N)c(N[C@H]4C[C@@H]5CN(C[C@H]6COCCO6)C[C@@H]5C4)nn3)ccc2n1` [Example 156, 3-(((3aR,5s,6aS)-2-(((S)-1,4-dioxan-2-yl)methyl)octahydro-cyclopenta[c]pyrrol-5-yl)amino)-6-(2-methyl-2H-indazol-5-yl)pyridazine-4-carbonitrile], the IC50 turned out to be 10.1 nM. Besides, the remaining activity at 30 µM (% ACh maximum at 30 μM) stood at 12%.
As to `[2H]C([2H])(C1CCOCC1)N1C[C@H]2C[C@H](Nc3nnc(-c4cc(F)ccc4Cl)cc3C(F)(F)F)C[C@H]2C1` [Example 16, (3aR,5s,6aS)-N-(6-(2-chloro-5-fluorophenyl)-4-(trifluoro-methyl)pyridazin-3-yl)-2-((tetrahydro-2H-pyran-4-yl)methyl-d2)octahydro-cyclopenta[c]pyrrol-5-amine], the IC50 was determined as 9.2 nM. Further, the remaining activity at 30 µM (% ACh maximum at 30 μM) worked out at 3%.
With `COc1ccc(-c2cc(C(F)(F)F)c(N[C@H]3C[C@@H]4CN(CC5CCOCC5)C[C@@H]4C3)nn2)c(C)c1` [Example 77, (3aR,5s,6aS)-N-(6-(4-methoxy-2-methylphenyl)-4-(trifluoromethyl)pyridazin-3-yl)-2-((tetrahydro-2H-pyran-4-yl)methyl)octahydro-cyclopenta[c]pyrrol-5-amine], the IC50 was 38 nM. Besides, the remaining activity at 30 µM (% ACh maximum at 30 μM) amounted to 3%.
In the same order, the values of `[2H]C([2H])(C1CCOCC1)N1C[C@H]2C[C@H](Nc3nnc(-c4ccc5nn(C)cc5c4)cc3C(F)(F)F)C[C@H]2C1` [Example 18, (3aR,5s,6aS)-N-(6-(2-methyl-2H-indazol-5-yl)-4-(trifluoro-methyl)pyridazin-3-yl)-2-((tetrahydro-2H-pyran-4-yl)methyl-d2)octahydro-cyclopenta[c]pyrrol-5-amine] are 29.8 nM and 3%.
For `COc1ccc(F)c(-c2cc(C(F)(F)F)c(N[C@H]3C[C@@H]4CN(CC5CCOCC5)C[C@@H]4C3)nn2)c1` [Example 57, (3aR,5s,6aS)-N-(6-(2-fluoro-5-methoxyphenyl)-4-(trifluoromethyl)pyridazin-3-yl)-2-((tetrahydro-2H-pyran-4-yl)methyl)octahydro-cyclopenta[c]pyrrol-5-amine], the IC50 is 278 nM. Where the note is “% ACh maximum at 30 μM”, the remaining activity at 30 µM came to 3%.
In the case of `[2H]C([2H])(C1CCOCC1)N1C[C@H]2C[C@H](Nc3nnc(-c4ccc5c(cnn5C)c4)cc3C(F)(F)F)C[C@H]2C1` [Example 144, (3aR,5s,6aS)-N-(6-(1-methyl-1H-indazol-5-yl)-4-(trifluoromethyl)pyridazin-3-yl)-2-((tetrahydro-2H-pyran-4-yl)methyl)octahydro-cyclopenta[c]pyrrol-5-amine], the IC50 was found to be 71.3 nM. The remaining activity at 30 µM (% ACh maximum at 30 μM) came to 3%.
The corresponding values for `Fc1cccc(-c2cc(C(F)(F)F)c(N[C@H]3C[C@@H]4CN(CC5CCOCC5)C[C@@H]4C3)nn2)c1F` [Example 81, (3aR,5s,6aS)-N-(6-(2,3-difluorophenyl)-4-(trifluoro-methyl)pyridazin-3-yl)-2-((tetrahydro-2H-pyran-4-yl)methyl)octahydro-cyclopenta[c]pyrrol-5-amine] are 178 nM and 3%.
On to `Cn1cc2cc(-c3cnc(N[C@H]4C[C@@H]5CN(CC6CCOCC6)C[C@@H]5C4)nc3)ccc2n1` [Example 12, (3aR,5s,6aS)-N-(5-(2-methyl-2H-indazol-5-yl)pyrimidin-2-yl)-2-((tetrahydro-2H-pyran-4-yl)methyl)octahydro-cyclopenta[c]pyrrol-5-amine], for which the IC50 is 2750 nM and the remaining activity at 30 µM is 10%.

(Values after US20230183219A1, “CONDENSED SUBSTITUTED HYDROPYRROLES AS ANTAGONISTS OF THE MUSCARINIC ACETYLCHOLINE RECEPTOR M4” (Vanderbilt University, priority 2020, published 2023).)
